For 2 compounds, IC50 results are on record in ChEMBL document CHEMBL4190295, “One-pot three steps cascade synthesis of novel isoandrographolide analogues and their cytotoxic activity” (Eur J Med Chem, 2017).

pIC50: −log10 of the molar value. Where only a bound is given, the exact number is not on record here.

Common to all, as to type: functional, cell-based
The subject of one test is P388. Description: Cytotoxicity against mouse P388 cells assessed as reduction in cell viability by SRB assay.
A further test concerns KB. Description: Cytotoxicity against human KB cells assessed as reduction in cell viability by SRB assay.
A further test has as its system HT-29. Briefly: Cytotoxicity against human HT-29 cells assessed as reduction in cell viability by SRB assay.
The subject of another test is MCF7. Description: Cytotoxicity against human MCF7 cells assessed as reduction in cell viability by SRB assay.
A further test deals with A549. Description: Cytotoxicity against human A549 cells assessed as reduction in cell viability by SRB assay.
Test [1] is described as follows: Cytotoxicity against rat ASK cells assessed as reduction in cell viability by SRB assay.

On to `CC(=O)O[C@@H]1CC[C@]2(C)[C@H](CC[C@]3(CNc4ccccc4F)O[C@H](C4=CCOC4=O)C[C@H]32)[C@]1(C)CO[Si](C(C)C)(C(C)C)C(C)C`, for which the pIC50 was 4.67 in the test on P388; 4.51 in the test on KB; 4.52 in the test with HT-29; 4.82 in the test on MCF7; 4.68 in the test with A549; 5.09 in test [1].
For `CC(=O)O[C@@H]1CC[C@]2(C)[C@H](CC[C@]3(CNc4cccc(F)c4)O[C@H](C4=CCOC4=O)C[C@H]32)[C@]1(C)CO[Si](c1ccccc1)(c1ccccc1)C(C)(C)C`, the pIC50 in the test with P388 is less than 4.30; in the test with KB it was less than 4.30; in the test on HT-29 it was less than 4.30; in the test with MCF7, less than 4.30; in the test on A549, less than 4.30; in test [1] it was 4.35.
